# Experimental data published in US20170209444A1, “METHODS OF TREATING CANCER AND PREVENTING CANCER DRUG RESISTANCE” (Genentech, Inc., priority 2014, published 2017).
# Entries after “also recorded” stand apart in the source; their conditions may differ.
# Key:
# [1] = tested on: H3K9me2 levels; conditions: Vedadi et al. 2011; Sweis et al. 2014; cited from earlier work
# [2] = tested on: SKBR3 DTPs; experiment: SKBR3 DTP formation, Lapatinib; assay type: cell-based, human; conditions: DTPs upon treatment with Lapatinib; FIG. 9B
# Experimental: (§1) 2×10^5 cells were plated in each well of a 6-well cluster dish. 24 hours after plating, media was removed and replaced with media containing drugs. Fresh media was replaced every 2 days until untreated cells reached confluence. Media was then removed, cells were washed with Phosphate Buffered Saline (PBS), and then fixed for 15 min with 4% formaldehyde in PBS. Cells were then washed with PBS and stained with the fluorescent nucleic acid stain, Syto60 ([…] in PBS; Molecular Probes) for 15 min. Dye was removed, cell monolayers were washed with PBS, and fluorescence quantitation was carried out at 700 nm with an Odyssey Infrared Imager (Li-Cor Biosciences). In some setting, RFP nuc red cells were used rather than Syto60.
# (§2) Drug-sensitive cells were treated with relevant drug as described herein at concentrations exceeding 100 times the established IC50 values, for three rounds, with each treatment lasting 72 hours. […]
# (§3) Specifically for Tarceva, GDC-0980, GDC-0973, AZ628, and Lapatinib DTPs, cells were plated and grown to 60-70% confluency then treated with Tarceva (0.1, 0.2, 0.5, and/or 1 uM), GDC-0980 (2 uM), GDC-0973 (1 uM), AZ628 (2 uM) and Lapatinib (1 uM). DTPs were collected and analyzed 1 week after the final dose of chemotherapy. […]
# [3] = tested on: M14 DTPs; experiment: M14 DTP formation, GDC0973; assay type: cell-based, human; conditions: DTPs upon treatment with GDC0973; FIG. 10B
# Experimental: as §1, §2, §3
# [4] = tested on: M14 parental cells; experiment: Viability of M14 parental cells; assay type: cell-based, human; conditions: shown concentrations; FIG. 10B
# Experimental: as §1
# (§4) Generally, for G9a inhibitor experiments cells were treated with active compound at 0.1, 0.2, 0.5 and/or 1 uM of the G9a inhibitor, UNC0638, for 3-5 days prior to chemotherapy treatment and were maintained on drug for the duration of the study.
# [5] = tested on: H3K9 methylation; experiment: H3K9 methylation in Colo205 cells (FIG. 11A); assay type: cell-based; conditions: human colon cancer cell line Colo205
# Experimental: as §4
# (§5) Cell lysates were prepared in Laemmli sample buffer and analyzed by immunoblotting as described previously. Cell lystates were analyzed using commercial antibodies against modifications on H3 (Abcam, Active Motif, and Cell Signaling Technologies).
# [6] = tested on: PC9 DTPs; experiment: PC9 drug tolerant persister (DTP) formation/viability, Tarceva; assay type: cell-based, human
# Experimental: as §1, §2, §3
# [7] = tested on: EVSA-T DTPs; experiment: EVSA-T DTP formation, GDC-0980; assay type: cell-based, human; conditions: DTPs upon treatment with GDC-0980; FIG. 8B
# Experimental: as §1, §2, §3
# [8] = tested on: Colo205 DTPs; experiment: Colo205 DTP formation, AZ628; assay type: cell-based, human; conditions: DTPs upon treatment with AZ628; FIG. 11B
# Experimental: as §1, §2, §3
# [9] = tested on: parental PC9 cells; experiment: Viability of parental PC9 cells; assay type: cell-based, human; conditions: shown concentrations; FIG. 6B
# Experimental: as §1, §4
# [10] = tested on: SKBR3 parental cells; experiment: Viability of SKBR3 parental cells; assay type: cell-based, human; conditions: shown concentrations; FIG. 9B
# Experimental: as §1, §4
# [11] = tested on: H3K9 methylation; experiment: H3K9 methylation in EVSA-T cells (FIG. 8A); assay type: cell-based; conditions: human breast cancer cell line EVSA-T
# Experimental: as §4, §5
# [12] = tested on: EVSA-T parental cells; experiment: Viability of EVSA-T parental cells; assay type: cell-based, human; conditions: shown concentrations; FIG. 8B
# Experimental: as §1, §4
# [13] = tested on: G9aK185me3; experiment: G9a auto-methylation (FIG. 3B); assay type: cell-based
# Experimental: Cell lysates were prepared in Laemmli sample buffer and analyzed by immunoblotting as described previously.
# [14] = tested on: methylation of H3K9; experiment: H3K9 methylation by Western blotting and mass spectrometry (FIG. 3A); assay type: cell-based
# Experimental: as §4, §5
# Samples with 10 million cells were lysed and histones were isolated from cell lysates using the Active Motif Histone Purification Kit (world wide web activemotif.com/catalog/171.html). Protein quantitation post-isolation was performed using the Qubit fluorescence platform (Invitrogen). The target yield was at least 20 μg or greater of purified histone per 5 million cells. The samples were then derivatized and binary comparisons using d0/d10 propionic anhydride and trypsin digestion was conducted. […]
# Peptide digests were analyzed by nano LC/MS/MS in data-dependent mode on a LTQ Orbitrap Velos tandem mass spectrometer. […] Trypsin-digested propionylated samples were quantitated within each LC/MS run by comparing d0/d5 pairs (according to the work of Garcia et al., JPR, 8, 5367-5374 (2009)). Alternate enzyme samples were quantitated label-free between LC/MS runs.
# [15] = tested on: H3K9 methylation; experiment: H3K9 methylation in SKBR3 cells (FIG. 9A); assay type: cell-based; conditions: human breast adenocarcinoma cell line SKBR3
# Experimental: as §4, §5
# [16] = tested on: H3K9 methylation; experiment: H3K9 methylation Western blot in PC9 cells (FIG. 6A); assay type: cell-based, human
# Experimental: as §4, §5
# [17] = tested on: H3K9 methylation; experiment: H3K9 methylation in M14 cells (FIG. 10A); assay type: cell-based; conditions: human melanoma cell line M14
# Experimental: as §4, §5
# [18] = tested on: Colo205 parental cells; experiment: Viability of Colo205 parental cells; assay type: cell-based, human; conditions: shown concentrations; FIG. 11B
# Experimental: as §1, §4
smiles,measurement,setting,value
COc1cc2c(NC3CCN(C(C)C)CC3)nc(C3CCCCC3)nc2cc1OCCCN1CCCC1 [UNC0638],H3K9me2 levels,[1],reduces H3K9me2 levels in a concentration dependent manner
same,number of SKBR3 DTPs formed after pre-treatment,[2],dose dependent reduction in the number of SKBR3 DTPs formed
same,number of M14 DTPs formed after pre-treatment,[3],dose dependent reduction in the number of M14 DTPs formed
same,viability of the M14 parental cells,[4],do not affect the viability of the M14 parental cells
same,"H3K9 methylation (me1, me2, me3)",[5],"reduces H3K9 methylation (e.g., me1, me2, and me3) in a dose dependent manner"
same,viability/number of PC9 DTPs generated via treatment with Tarceva,"[6]; Tarceva, FIGS. 5 and 7","reduces the number of the non-small cell lung cancer cell line, PC9, DTPs; also recorded: reduced the viability of PC9 DTPs"
same,number of DTPs formed after pre-treatment,"[6]; varying doses of UNC0638 pre-treatment, FIG. 6B",reducing the number of PC9 DTPs; also recorded: dose dependent reduction in the number of DTPs formed
same,number of EVSA-T DTPs formed after pre-treatment,[7],dose dependent reduction in the number of EVSA-T DTPs formed
same,number of Colo205 DTPs formed after pre-treatment,[8],dose dependent reduction in the number of Colo205 DTPs formed
same,viability of the parental PC9 cells,[9],do not affect the viability of the parental PC9 cells
same,viability of the SKBR3 parental cells,[10],do not affect the viability of the SKBR3 parental cells
same,"H3K9 methylation (me1, me2, me3)",[11],"reduces H3K9 methylation (e.g., me1, me2, and me3) in a dose dependent manner"
same,viability of the EVSA-T parental cells,[12],do not affect the viability of the EVSA-T parental cells
same,inhibition of auto-methylation G9aK185me3,[13],inhibits auto-methylation G9aK185me3
same,inhibition of methylation of H3K9,[14],capable of inhibiting methylation of H3K9
same,"H3K9 methylation (me1, me2, me3)",[15],"reduces H3K9 methylation (e.g., me1, me2, and me3) in a dose dependent manner"
same,"H3K9 methylation (me1, me2, me3)",[16],"reduced methylation of H3K9; also recorded: reduces H3K9 methylation (e.g., me1, me2, and me3) in a dose dependent manner"
same,"H3K9 methylation (me1, me2, me3)",[17],"reduces H3K9 methylation (e.g., me1, me2, and me3) in a dose dependent manner"
same,viability of the Colo205 parental cells,[18],do not affect the viability of the Colo205 parental cells
